How the values were obtained:
Arabidopsis seedlings [1] = test: Seedling growth assay on trehalose with or without Val A; format: in vivo, Arabidopsis thaliana; settings: for sensitivity to trehalose, root length: with Val A
Protocol: FIG. 3: Growth phenotypes of AtTRE1 mutants on trehalose. Panel A, GT tre KO lines and wt Ler with Val A. Panel B, SA TRE OX lines and wt Col with Val A. Panel C, GT tre KO lines and wt Ler without Val A. Panel D, SA TRE OX lines and wt Col without Val A. Approximately 30 seedlings/treatment were grown on vertical plates, 1× MS without suc, in a 12 hours-12 hours day/night cycle, for 10 days with 0, 0.5, 1, 5, 10, or 25 mM trehalose. Data are means±SE.
FIG. 4: Growth phenotypes of AtTRE1 mutants on high trehalose. Seedlings grown in the same conditions as described in FIG. 3, without Val A, and with higher concentration of trehalose: 50, 100, 150, and 200 mM. Representative seedlings are shown.
Vapor-sterilized seeds were sown after a 48-hour stratification period in vertically or horizontally oriented Petri dishes on a full strength (or mentioned otherwise) Murashige and Skoog Salt Mixture including vitamins (MS) medium (4.3 g/l) with MES (0.5 g/l) and solidified with Phytagar (8 g/l) (Duchefa, Haarlem, The Netherlands). The media was enriched with sucrose/glucose (0-6%) or trehalose, depending on the tested conditions, which are specified. Val A was added in a concentration of 10 μM.
In our growth assay, no extra sugar was added to the media.

trehalase = target: T1, trehalase (Arabidopsis thaliana, UniProt Q9SU50); settings: cited from earlier work
T1 sequence (Q9SU50 1-626): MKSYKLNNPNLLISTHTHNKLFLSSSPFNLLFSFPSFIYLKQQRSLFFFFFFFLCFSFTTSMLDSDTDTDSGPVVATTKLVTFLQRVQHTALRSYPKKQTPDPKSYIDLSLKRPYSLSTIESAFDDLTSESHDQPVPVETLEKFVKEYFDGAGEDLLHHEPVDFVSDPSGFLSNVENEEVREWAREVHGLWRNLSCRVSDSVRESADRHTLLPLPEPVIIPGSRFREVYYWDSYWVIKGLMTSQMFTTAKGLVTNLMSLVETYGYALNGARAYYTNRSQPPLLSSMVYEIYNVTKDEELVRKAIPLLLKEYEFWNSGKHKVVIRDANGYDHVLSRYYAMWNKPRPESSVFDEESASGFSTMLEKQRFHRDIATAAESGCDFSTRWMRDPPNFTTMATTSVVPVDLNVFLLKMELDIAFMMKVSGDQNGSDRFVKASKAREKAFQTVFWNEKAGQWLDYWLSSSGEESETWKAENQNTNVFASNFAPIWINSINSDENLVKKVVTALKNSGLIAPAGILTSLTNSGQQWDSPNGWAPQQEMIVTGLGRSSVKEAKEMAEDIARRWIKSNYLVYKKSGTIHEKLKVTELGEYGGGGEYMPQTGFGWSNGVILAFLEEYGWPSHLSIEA

plants = settings: Val A treatment, cited from earlier work
Arabidopsis seedlings [2] = settings: absence of Val A; cited from earlier work

Structure (SMILES)	inhibition of trehalase activity in the OX lines (Arabidopsis seedlings [1]; Val A 10 μM, SA TRE OX lines, concluded from growth on trehalose)	trehalase activity (trehalase)	phytotoxicity (plants; adult plants)	phenotypic irregularities in seedlings (plants; seedlings)	development of wild-type seedlings on high trehalose concentrations (Arabidopsis seedlings [2])	sensitivity to trehalose, root length (Arabidopsis seedlings [1]; Col wild-type plants, 10 mM trehalose)	development with increasing trehalose concentrations (Arabidopsis seedlings [1]; GT tre KO mutants versus wild-type Ler, without Val A)	sensitivity to trehalose, root length (Arabidopsis seedlings [1]; Ler wild-type plants)	resistance to higher trehalose levels (Arabidopsis seedlings [1]; SA TRE OX plants versus wild-type controls, in the presence of Val A)	sensitivity to high trehalose concentrations (Arabidopsis seedlings [1]; SA TRE OX plants versus wild-type seedlings, without Val A, up to 200 mM)	root growth and development of wild-type seedlings (Arabidopsis seedlings [1]; gradually increased trehalose (0-25 mM) in the presence of Val A 10 μM, no extra sugar, 10 days)
OCC1=C[C@@H](N[C@H]2C[C@H](CO)[C@@H](O[C@H]3O[C@@H](CO)[C@H](O)[C@@H](O)[C@@H]3O)[C@H](O)[C@H]2O)[C@H](O)[C@@H](O)[C@@H]1O [Validamycin A]	not sufficient to inhibit increased trehalase activity	specifically inhibits trehalase activity	causes phytotoxicity	no phenotypic irregularities	–	–	–	–	–	–	–
OC[C@H]1O[C@H](O[C@H]2O[C@H](CO)[C@@H](O)[C@H](O)[C@H]2O)[C@H](O)[C@@H](O)[C@@H]1O [trehalose, α-D-glucopyranosyl-1,1-α-D-glucopyranoside]	–	–	–	–	arrest with development shortly after germination	more dramatic decrease in root length	significantly more affected in development	rather gradual inhibitory effect	significantly more resistant	insensitive	increased inhibition of root growth and development

— patent publication US20120005774A1, “USE OF TREHALASE TO OBTAIN DROUGHT RESISTANCE IN PLANTS” (KATHOLIEKE UNIVERSITEIT LEUVEN, K.U. LEUVEN R & D, priority 2009, published 2012)
